Test results published in the supplement of paper PMC8671470.

Assays:
Conditions in all cases: 72 h
THP-1 [1] = test: cell viability (% survival relative to DMSO control, bortezomib = 0%); higher = less cytotoxic
How it was run: (§1)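 Seeding density for each of the 10 AML and 5 CML cell lines was titrated to the linear growth range. Cells went into 384-well plates pre-printed in duplicate with compounds at 1, 10, 100, 1000 or 10000 nM and were held for 72 h at 37 °C with 5% CO2. CellTiter-Glo luminescence then provided the readout. Percent survival is expressed relative to vehicle at 100% and a 10 µM positive control at 0%, averaged over duplicates.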

MV4-11 [2] = test: as above
How it was run: as §1

KCL-22 [3] = test: as above
How it was run: as §1

HEL [4] = test: as above
How it was run: as §1

Mono-Mac-6 [5] = test: as above
How it was run: as §1

HL-60 [6] = test: as above
How it was run: as §1

LAMA-84 [7] = test: as above
How it was run: as §1

SHI-1 [8] = test: as above
How it was run: as §1

NOMO-1 [9] = test: as above
How it was run: as §1

KU-812 [10] = test: as above
How it was run: as §1

MOLM-13 [11] = test: as above
How it was run: as §1

KG-1 [12] = test: as above
How it was run: as §1

K-562 [13] = test: as above
How it was run: as §1

ML-2 [14] = test: as above
How it was run: as §1

BV-173 [15] = test: as above
How it was run: as §1

THP-1 [16] = system: THP-1
How it was run: (§2)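 Each of fifteen myeloid leukaemia cell lines was seeded in RPMI 1640 at a density titrated to its linear growth range. The cells were incubated for 72 h at 37 °C and 5% CO2 with compounds at five tenfold doses from 1 to 10,000 nM, in duplicate. After ATP luminescence was normalised to vehicle and to a positive control at 10 µM, four-parameter log-logistic curves were fitted. These curves gave the IC50.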

MV4-11 [17] = system: MV4-11
How it was run: as §2

KCL-22 [18] = system: KCL-22
How it was run: as §2

HEL [19] = system: HEL
How it was run: as §2

Mono-Mac-6 [20] = system: Mono-Mac-6
How it was run: as §2

HL-60 [21] = system: HL-60
How it was run: as §2

LAMA-84 [22] = system: LAMA-84
How it was run: as §2

SHI-1 [23] = system: SHI-1
How it was run: as §2

NOMO-1 [24] = system: NOMO-1
How it was run: as §2

KU-812 [25] = system: KU-812
How it was run: as §2

MOLM-13 [26] = system: MOLM-13
How it was run: as §2

KG-1 [27] = system: KG-1
How it was run: as §2

K-562 [28] = system: K-562
How it was run: as §2

ML-2 [29] = system: ML-2
How it was run: as §2

BV-173 [30] = system: BV-173
How it was run: as §2

[31] = system: myeloid leukemia patient primary cells Pat.6; test: cell viability (% survival relative to DMSO control); higher = less cytotoxic
How it was run: (§3)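 Mononuclear cells from patients with AML or CML were thawed, purified on Ficoll and placed in RPMI 1640 with 10% FBS at 10,000 cells/well on 384-well plates. The plates came pre-printed with 70 compounds at five tenfold concentrations spanning 1–10,000 nM, in duplicate, and cells were exposed for 72 h. CellTiter-Glo gave viability, scaled between DMSO wells and wells with 10 μM proteasome inhibitor. Where reported, area under the curve was obtained from log-logistic fits with four parameters using the drc and PharmacoGx R packages.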

[32] = system: myeloid leukemia patient primary cells Pat.1; test: as above
How it was run: as §3

[33] = system: myeloid leukemia patient primary cells Pat.4; test: as above
How it was run: as §3

[34] = system: myeloid leukemia patient primary cells Pat.11; test: as above
How it was run: as §3

[35] = system: myeloid leukemia patient primary cells Pat.5; test: as above
How it was run: as §3

[36] = system: myeloid leukemia patient primary cells Pat.9; test: as above
How it was run: as §3

[37] = system: myeloid leukemia patient primary cells Pat.13; test: as above
How it was run: as §3

[38] = system: myeloid leukemia patient primary cells Pat.15; test: as above
How it was run: as §3

[39] = system: myeloid leukemia patient primary cells Pat.12; test: as above
How it was run: as §3

[40] = system: myeloid leukemia patient primary cells Pat.2; test: as above
How it was run: as §3

[41] = system: myeloid leukemia patient primary cells Pat.14; test: as above
How it was run: as §3

[42] = system: myeloid leukemia patient primary cells Pat.3; test: as above
How it was run: as §3

[43] = system: myeloid leukemia patient primary cells Pat.7; test: as above
How it was run: as §3

[44] = system: myeloid leukemia patient primary cells Pat.10; test: as above
How it was run: as §3

[45] = system: myeloid leukemia patient primary cells Pat.8; test: as above
How it was run: as §3

[46] = system: myeloid leukemia patient primary cells Pat.6; test: area under dose-response curve (viability, 1 nM-10 uM) (fraction (0-1)); higher = more sensitive
Procedure: (§4)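 AUC (0–1, higher = more sensitive) of the 5-point dose–response (1 nM–10 µM, 72 h, CellTiter-Glo) in primary AML/CML patient mononuclear cells. 0.030103 is the floor for inactive compounds.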

[47] = system: myeloid leukemia patient primary cells Pat.1; test: as above
Procedure: as §4

[48] = system: myeloid leukemia patient primary cells Pat.4; test: as above
Procedure: as §4

[49] = system: myeloid leukemia patient primary cells Pat.11; test: as above
Procedure: as §4

[50] = system: myeloid leukemia patient primary cells Pat.5; test: as above
Procedure: as §4

[51] = system: myeloid leukemia patient primary cells Pat.9; test: as above
Procedure: as §4

[52] = system: myeloid leukemia patient primary cells Pat.13; test: as above
Procedure: as §4

[53] = system: myeloid leukemia patient primary cells Pat.15; test: as above
Procedure: as §4

[54] = system: myeloid leukemia patient primary cells Pat.12; test: as above
Procedure: as §4

[55] = system: myeloid leukemia patient primary cells Pat.2; test: as above
Procedure: as §4

[56] = system: myeloid leukemia patient primary cells Pat.14; test: as above
Procedure: as §4

[57] = system: myeloid leukemia patient primary cells Pat.3; test: as above
Procedure: as §4

[58] = system: myeloid leukemia patient primary cells Pat.7; test: as above
Procedure: as §4

[59] = system: myeloid leukemia patient primary cells Pat.10; test: as above
Procedure: as §4

[60] = system: myeloid leukemia patient primary cells Pat.8; test: as above
Procedure: as §4

COc1cc(/C=C/c2ccc(OC)cc2OC)cc(OC)c1 [2,3',4,5'-Tetramethoxystilbene]
cell viability [%]
Conditions	1 nM	10 nM	100 nM	1000 nM	10000 nM
BV-173 [15]	104	104	99.1	103	79.6
HEL [4]	106	106	99.2	103	106
HL-60 [6]	109	86.2	96.2	105	81.2
K-562 [13]	108	113	106	101	89.5
KCL-22 [3]	94.7	110	98.7	106	104
KG-1 [12]	94.9	110	91.9	101	79.7
KU-812 [10]	101	95.5	96.9	97.4	76.8
LAMA-84 [7]	103	104	99.4	96.4	94.3
ML-2 [14]	80.1	102	102	115	72.9
MOLM-13 [11]	105	105	86.4	107	100
MV4-11 [2]	103	106	98.4	98.4	86
Mono-Mac-6 [5]	94.6	97.2	95.3	100	104
NOMO-1 [9]	97.5	106	95.7	108	94.9
SHI-1 [8]	99.7	123	99.4	104	98.9
THP-1 [1]	97.3	107	108	109	75.3

Conditions	IC50 (cell viability) [µM]
BV-173 [30]	> 10
HEL [19]	> 10
HL-60 [21]	> 10
K-562 [28]	> 10
KCL-22 [18]	> 10
KG-1 [27]	> 10
KU-812 [25]	> 10
LAMA-84 [22]	> 10
ML-2 [29]	> 10
MOLM-13 [26]	> 10
MV4-11 [17]	> 10
Mono-Mac-6 [20]	> 10
NOMO-1 [24]	> 10
SHI-1 [23]	> 10
THP-1 [16]	> 10

O=C(CCl)N(CCCNC(=O)C(F)(F)F)c1ccc([N+](=O)[O-])cc1 [ML-175]
cell viability [%]
Conditions	1 nM	10 nM	100 nM	1000 nM	10000 nM
[31]	97.1	94.4	70.2	61.2	1.29
[32]	85.7	78.3	67.8	72.8	< 0
[33]	97.6	79.3	65.7	42.1	1.37
[34]	95.5	97	86.2	67.7	1.51
[35]	99.9	51.6	< 0	2.01	< 0
[36]	64.6	81.5	7.88	7.21	0.492
[37]	92.9	88.6	71.6	62.1	3.76
[38]	95	80.2	86.1	75.6	1.52
[39]	96.2	98.2	80.4	58.4	1.48
[40]	94.8	93.7	89.3	82.8	4.31
[41]	87.8	82.6	29.4	51.2	2.44
[42]	96.1	96.2	23.6	46.1	0.554
[43]	> 100	89.4	11.6	43.6	50
[44]	81.5	93.1	17.1	15.7	5.41
[45]	87.1	89	85.1	65.8	0.0301

Conditions	area under dose-response curve
[46]	0.204
[47]	0.149
[48]	0.29
[49]	0.199
[50]	0.744
[51]	0.593
[52]	0.19
[53]	0.159
[54]	0.221
[55]	0.147
[56]	0.488
[57]	0.498
[58]	0.533
[59]	0.542
[60]	0.192
